{
  "source": "patent US20260285857A1",
  "about": "“BICYCLIC AND HETEROCYCLIC AMIDE COMPOUNDS” (priority 2024, published 2026)",
  "data": [
    {"system": "immunoglobulin light chain protein WIL-FL T46L", "assay": "Differential scanning fluorimetry (thermal shift) assay", "format": "binding", "settings": "Table A; temperature shift [Tm]compound-[Tm]vehicle; recombinant WIL-FL T46L", "values": [
      {"compound": "Cc1cc(N2CC[C@](C)(c3ccccc3)C2)cn2nc(C(=O)NC3CN(CC(=O)O)CC3O)nc12", "note": "(stereo partly shown) [Compound 110]", "DSF": "***** (>2.5° C.=*****)"},
      {"compound": "Cc1cc(N2CC[C@](C)(c3ccccc3)C2)cn2nc(C34CC(CO3)C4C(=O)NCC(C)(C)O)nc12", "note": "(stereo partly shown) [Compound 71]", "DSF": "***** (>2.5° C.=*****)"},
      {"compound": "Cc1cc(N2CCC(C)(O)C2)cn2nc(C(=O)N3CC4CN(c5cccc(C(=O)O)n5)CC4C3)nc12", "note": "(stereo not shown) [Compound 295]", "DSF": "* (0-0.5° C.=*)"},
      {"compound": "Cc1cc(N2CC[C@](C)(c3ccccc3)C2)cn2nc(C(=O)NC34CCC(C(=O)O)(C3)OC4)nc12", "note": "(stereo partly shown) [Compound 181]", "DSF": "***** (>2.5° C.=*****)"},
      {"compound": "Cc1cc(N2CC[C@](C)(c3ccccc3)C2)cn2nc(C(=O)N3CCC4(CCN(c5ccnc(C(=O)O)n5)C4)C3)nc12", "note": "(stereo partly shown) [Compound 266]", "DSF": "***** (>2.5° C.=*****)"},
      {"compound": "Cc1cc(N2CC[C@](C)(c3ccccc3)C2)cn2nc(C(=O)N3CCn4c(nnc4-c4cccc(C(=O)O)n4)C3)nc12", "note": "[Compound 408]", "DSF": "***** (>2.5° C.=*****)"},
      {"compound": "Cc1cc(N2CC[C@](C)(c3ccccc3)C2)cn2nc(C34CC(N)(CO3)C4CO)nc12", "note": "(stereo partly drawn) [Compound 4, (4-amino-1-(8-methyl-6-((R)-3-methyl-3-phenylpyrrolidin-1-yl)-[1,2,4]triazolo[1,5-a]pyridin-2-yl)-2-oxabicyclo[2.1.1]hexan-5-yl)methanol]", "DSF": "***** (>2.5° C.=*****)"},
      {"compound": "CNC(=O)c1nc2c(C)cc(N3CC[C@@](C)(c4ccccc4)C3)cc2o1", "note": "[Compound 435]", "DSF": "***** (>2.5° C.=*****)"},
      {"compound": "Cc1nc(C2C3(c4nc5c(C)cc(N6CC[C@](C)(c7ccccc7)C6)cn5n4)CC2(C(C)(C)O)CO3)n[nH]1", "note": "(mixture of isomers) [Compound 3, 2-[1-[8-methyl-6-[rac-(3R)-3-methyl-3-phenyl-pyrrolidin-1-yl]-[1,2,4]triazolo[1,5-a]pyridin-2-yl]-5-(5-methyl-1H-1,2,4-triazol-3-yl)-2-oxabicyclo[2.1.1]hexan-4-yl]propan-2-ol]", "DSF": "***** (>2.5° C.=*****)"},
      {"compound": "Cc1cc(N2CC[C@](C)(c3ccccc3)C2)cn2nc(C(=O)N3CC4CN(c5cccc(C(=O)O)n5)CC(C3)O4)nc12", "note": "[Compound 287]", "DSF": "***** (>2.5° C.=*****)"},
      {"compound": "Cc1cc(N2CC[C@](C)(c3ccccc3)C2)cn2nc(C(=O)N3CC4CN(c5ccnc(C(=O)O)c5)CC4C3)nc12", "note": "(stereo partly shown) [Compound 278]", "DSF": "***** (>2.5° C.=*****)"},
      {"compound": "Cc1cc(N2CC(C)(c3ccccc3)C2)cn2nc(C(=O)N3C[C@@H]4CN(c5cccc(C(=O)O)n5)C[C@@H]4C3)nc12", "note": "[Compound 399]", "DSF": "***** (>2.5° C.=*****)"},
      {"compound": "Cc1cc(N2CC[C@](C)(c3ccccc3)C2)cn2nc(C(=O)NC3COCC3(C)C(=O)O)nc12", "note": "(stereo partly shown) [Compound 180]", "DSF": "***** (>2.5° C.=*****)"},
      {"compound": "Cc1cc(N2CC[C@](C)(c3ccccc3)C2)cn2nc(C(=O)N(C)[C@H]3CCNC3)nc12", "note": "[Compound 103]", "DSF": "***** (>2.5° C.=*****)"},
      {"compound": "Cc1cc(N2CCC(C)(C#N)C2)cn2nc(C(=O)N3CC4CN(c5cccc(C(=O)O)n5)CC4C3)nc12", "note": "(stereo not shown) [Compound 430]", "DSF": "* (0-0.5° C.=*)"},
      {"compound": "Cc1cc(N2CC[C@](C)(c3ccccc3)C2)cn2nc(C(=O)N3C[C@@H](O)[C@@H](O)C3)nc12", "note": "[Compound 115]", "DSF": "***** (>2.5° C.=*****)"},
      {"compound": "Cc1cc(OC[C@H](C)c2ccccc2)cn2nc(C(=O)N[C@H]3[C@H]4CN[C@@H]3C4)nc12", "note": "[Compound 322]", "DSF": "***** (>2.5° C.=*****)"},
      {"compound": "Cc1cc(N2CC[C@](C)(c3ccccc3)C2)cn2nc(C(=O)NC3(CO)CCOCC3)nc12", "note": "[Compound 131]", "DSF": "***** (>2.5° C.=*****)"},
      {"compound": "Cc1cc(N2CC[C@](C)(c3ccccc3)C2)cn2nc(C(=O)N3CCCN(c4cccc(C(=O)O)n4)CCC3)nc12", "note": "[Compound 288]", "DSF": "***** (>2.5° C.=*****)"},
      {"compound": "Cc1cc(N2CC[C@](C)(c3ccccc3)C2)cn2nc(C(=O)N3CC4(CCN(c5cccc(C(=O)O)n5)C4)C3)nc12", "note": "[Compound 240]", "DSF": "***** (>2.5° C.=*****)"},
      {"compound": "Cc1cc(N2CC[C@](C)(c3ccccc3)C2)cn2nc(C(=O)N(C)C3(C(=O)O)CC3)nc12", "note": "[Compound 164]", "DSF": "***** (>2.5° C.=*****)"},
      {"compound": "Cc1cc(OC[C@H](C)c2ccccc2)cn2nc(C(=O)NC3CCN(c4cccc(C(=O)O)n4)CC3)nc12", "note": "[Compound 307]", "DSF": "***** (>2.5° C.=*****)"},
      {"compound": "Cc1cc(N2CC[C@](C)(c3ccccc3)C2)cn2nc([C@]34CO[C@H](C3)C(N)C4)nc12", "note": "(stereo partly shown) [Compound 68]", "DSF": "**** (>1.5-2.5° C.=****)"},
      {"compound": "Cc1cc(N2CCC(C)(c3nnn(C)n3)C2)cn2nc(C(=O)N3C[C@@H]4CN(c5cccc(C(=O)O)n5)C[C@@H]4C3)nc12", "note": "(stereo partly shown) [Compound 35, 6-[5-[8-methyl-6-[3-methyl-3-(2-methyltetrazol-5-yl)pyrrolidin-1-yl]-[1,2,4]triazolo[1,5-a]pyridine-2-carbonyl]-1,3,3a, 4,6,6a-hexahydropyrrolo[3,4-c]pyrrol-2-yl]pyridine-2-carboxylic acid]", "DSF": "*** (>1-1.5° C.=***)"}
    ]},
    {"system": "immunoglobulin light chain protein WIL-FL T46L", "assay": "Differential scanning fluorimetry (thermal shift) assay", "format": "binding", "settings": "Table B; temperature shift [Tm]compound-[Tm]vehicle; recombinant WIL-FL T46L", "values": [
      {"compound": "Cc1cc(N2CC3(CCC3c3cccc(F)c3)C2)cn2nc(C(=O)N3C[C@@H]4CN(c5cccc(C(=O)O)n5)C[C@@H]4C3)nc12", "note": "(stereo partly shown) [Compound 739]", "DSF": "***** (>2.5° C.=*****)"},
      {"compound": "Cc1cc(N2CC[C@](C)(c3cccc(Cl)c3)C2)cn2nc(C(=O)N3CC[C@@]4(CCN(c5cccc(C(=O)O)n5)C4)C3)nc12", "note": "[Compound 747]", "DSF": "***** (>2.5° C.=*****)"},
      {"compound": "Cc1cc(N2CC[C@](C)(c3ccccc3)C2)cn2nc([C@@]34C[C@@H](CO3)[C@H]4N3CC4(CC4)NC3=O)nc12", "note": "[Compound 524]", "DSF": "***** (>2.5° C.=*****)"},
      {"compound": "Cc1cc(N2CC[C@](C)(c3ccccc3)C2)cn2nc(C(=O)N3CC[C@@]4(CCN(C(=O)CC(C)(C)C(=O)O)C4)C3)nc12", "note": "[Compound 707, 2,2-dimethyl-4-[(5R)-2-[8-methyl-6-[(3R)-3-methyl-3-phenyl-pyrrolidin-1-yl]-[1,2,4]triazolo[1,5-a]pyridine-2-carbonyl]-2,7-diazaspiro[4.4]nonan-7-yl]-4-oxo-butanoic acid]", "DSF": "***** (>2.5° C.=*****)"},
      {"compound": "Cc1cc(NC(=O)C23COC(c4nc5c(C)cc(N6CC[C@](C)(c7ccccc7)C6)cn5n4)(C2)C3)cc(C(=O)O)n1", "note": "[Compound 452]", "DSF": "***** (>2.5° C.=*****)"},
      {"compound": "C[C@]1(c2ccccc2)CCN(c2cc(CO)c3nc(C45CC(CO4)C5C(N)=O)nn3c2)C1", "note": "(stereo partly shown) [Compound 495]", "DSF": "***** (>2.5° C.=*****)"},
      {"compound": "Cc1cc(N2CC[C@](C)(c3ccccc3)C2)cn2nc(C34CC(N)(CO3)C4c3nc(C)n(C)n3)nc12", "note": "(stereo partly shown) [Compound 539]", "DSF": "***** (>2.5° C.=*****)"},
      {"compound": "Cc1cc(N2CC[C@](C)(c3ccccc3)C2)cn2nc(C34CC(N5CCC(C(=O)O)CC5=O)(CO3)C4CO)nc12", "note": "(stereo partly drawn) [Compound 546, 1-(5-(hydroxymethyl)-1-(8-methyl-6-((R)-3-methyl-3-phenylpyrrolidin-1-yl)-[1,2,4]triazolo[1,5-a]pyridin-2-yl)-2-oxabicyclo[2.1.1]hexan-4-yl)-2-oxopiperidine-4-carboxylic acid]", "DSF": "***** (>2.5° C.=*****)"},
      {"compound": "Cc1cc(N2CC[C@](C)(c3ccccc3)C2)cn2nc(C(=O)N3CC[C@@]4(CCN(C(=O)C56CC(C(=O)O)(C5)C6)C4)C3)nc12", "note": "[Compound 712]", "DSF": "***** (>2.5° C.=*****)"},
      {"compound": "Cc1cc(N2CC[C@@](C)(n3ccc(C(F)(F)F)n3)C2)cn2nc(C(=O)NC3COC4(COC4)C3)nc12", "note": "(stereo partly shown) [Compound 593]", "DSF": "***** (>2.5° C.=*****)"},
      {"compound": "Cc1cc(N2CC[C@](C)(c3ccccc3)C2)cn2nc(C34CC(CO3)C4N3CC4(CCC4)NC3=O)nc12", "note": "(stereo partly drawn) [Compound 532, 7-(1-(8-methyl-6-((R)-3-methyl-3-phenylpyrrolidin-1-yl)-[1,2,4]triazolo[1,5-a]pyridin-2-yl)-2-oxabicyclo[2.1.1]hexan-5-yl)-5,7-diazaspiro[3.4]octan-6-one]", "DSF": "***** (>2.5° C.=*****)"},
      {"compound": "Cc1cc(N2CC[C@](C)(c3ccccc3)C2)cn2nc(C34CC(CO3)C4N3CC4(CCN(c5cccc(C(=O)O)n5)C4)NC3=O)nc12", "note": "(stereo partly drawn) [Compound 531, 6-[3-[1-[8-methyl-6-[(3R)-3-methyl-3-phenyl-pyrrolidin-1-yl]-[1,2,4]triazolo[1,5-a]pyridin-2-yl]-2-oxabicyclo[2.1.1]hexan-5-yl]-2-oxo-1,3,7-triazaspiro[4.4]nonan-7-yl]pyridine-2-carboxylic acid]", "DSF": "***** (>2.5° C.=*****)"},
      {"compound": "Cc1cc(N2CC[C@](C)(c3ccccc3)C2)cn2nc(C(=O)N3CCC4(CCN(c5ccc(C#N)c(C(=O)O)n5)C4)C3)nc12", "note": "(mixture of isomers) [Compound 609, 3-cyano-6-[2-[8-methyl-6-[rac-(3R)-3-methyl-3-phenyl-pyrrolidin-1-yl]-[1,2,4]triazolo[1,5-a]pyridine-2-carbonyl]-2,7-diazaspiro[4.4]nonan-7-yl]pyridine-2-carboxylic acid]", "DSF": "***** (>2.5° C.=*****)"}
    ]}
  ]
}
